Consider two compounds from patent US20040229356A1, “In vitro mass production of human erythroid cells from the blood of normal donors and thalassemic patients” (ISTITUTO SUPERIORE DI SANITA, priority 2003, published 2004).

For experiment [1], the system named is CD34^+ cells. The experiment can be described thus: Differentiative-phase culture (EPO and insulin, 5 additional days) of cells harvested from the proliferative phase, benzidine staining. The note with it: for frequency of benzidine^pos cells after differentiative phase: independent of priming duration (either 8 or 13 days) with GFs plus the steroid, then EPO and insulin. Type of experiment: cell-based, human. Here is the method:
Light-density cells and CD34^+ cells were cultured for the proliferative phase in Iscove's modified Dulbecco's medium (IMDM, Mascia Brunelli, Milan, Italy) containing 20% of fetal bovine serum (FBS, Hyclone, Logan, Utah) and supplemented with Stem Cell Factor (SCF, 10 ng/mL) (Amgen, Thousand Oaks, Calif.), Erythropoietin (EPO, 1 u/mL) (Epoetina alfa, Dompe Biotec, Milan, Italy), Interleukin-3 (IL-3, 1 ng/mL) (Bouty, Milan, Italy), dexamethasone (10^−6 M) (Sigma), and estradiol (10^−6 M) (Sigma). Light-density and CD34^+ cells were seeded at a concentration of 10^6 and 10^5 cells/mL, respectively.
Cell morphology was analyzed according to standard criteria on cytocentrifuged (Shandon, Astmoor, England) smears stained with May-Grumwald-Giemsa. Hemoglobin-containing cells were identified by benzidine staining (S. H. Orkin, Proc. Natl. Acad. Sci. USA 72, 98-102 (1975)). The cell antigenic profile was analyzed by flow cytometry with a Coulter Elite ESP Cell Sorter (Coulter, Miami, Fla.) according to standard protocols. […] Cells incubated with the corresponding, irrelevant, isotype-matched antibodies were used for gating nonspecific fluorescence and dead cells were excluded by propidium iodide staining (5 μg/mL) (Sigma).
The total cell number observed in cultures of CD34^+ cells cultured for up to 14 days in the presence of the combination of SCF, IL-3 and EPO (growth factors, GFs), alone or with the further addition of estradiol or of dexamethasone, is presented in FIG. 1. In all three conditions analyzed, the total cell number per culture rose from 0.1×10^6 cells at day 0 to 10×10^6 at day 7 and continued to increase, reaching up to 100×10^6 by day 13. […] The total number of erythroid cells obtained at the end of the proliferative-plus-differentiative phase can be calculated by multiplying the total number of cells presented in FIG. 1 by the frequency of benzidinepos cells presented in FIG. 2. […]

Experiment [2] concerns CD34^+ cells. Description: Proliferative-phase liquid culture of CD34+ cells (total cell number, benzidine staining). Type of experiment: cell-based, human. The note with it: day 8 of proliferative phase; estradiol or dexamethasone added to GFs (SCF, IL-3, EPO). The procedure:
Light-density cells were collected, washed with Hank's basal salt solution supplemented with 1% (w/v) bovine serum albumin, and either cultured directly or cryopreserved in 10% dimethyl sulfoxide (Sigma, St. Louis, Mo.). Frozen cadaveric marrow cells obtained from Northwest Tissue Center, Puget Sound Blood Bank (Seattle, Wash.) were thawed, washed, and incubated overnight in IMDM with 10% fetal calf serum on tissue culture plates to remove adherent cells. […]
Cell morphology was analyzed according to standard criteria on cytocentrifuged (Shandon, Astmoor, England) smears stained with May-Grumwald-Giemsa. […] The cell antigenic profile was analyzed by flow cytometry with a Coulter Elite ESP Cell Sorter (Coulter, Miami, Fla.) according to standard protocols. […] Cells incubated with the corresponding, irrelevant, isotype-matched antibodies were used for gating nonspecific fluorescence and dead cells were excluded by propidium iodide staining (5 μg/mL) (Sigma).
The total cell number observed in cultures of CD34^+ cells cultured for up to 14 days in the presence of the combination of SCF, IL-3 and EPO (growth factors, GFs), alone or with the further addition of estradiol or of dexamethasone, is presented in FIG. 1. In all three conditions analyzed, the total cell number per culture rose from 0.1×10^6 cells at day 0 to 10×10^6 at day 7 and continued to increase, reaching up to 100×10^6 by day 13. […]

As for `C[C@]12CC[C@@H]3c4ccc(O)cc4CC[C@H]3[C@@H]1CC[C@@H]2O` [estradiol], the “frequency of benzidine^pos cells after differentiative phase” value in experiment [1] was 40-60%.
Consider `C[C@@H]1C[C@H]2[C@@H]3CCC4=CC(=O)C=C[C@]4(C)[C@@]3(F)[C@@H](O)C[C@]2(C)[C@@]1(O)C(=O)CO` [dexamethasone], for which the “total number of erythroid cells obtained at end of proliferative-plus-differentiative phase” value in experiment [1] (differentiation started at day 8 of proliferative phase, total cell number multiplied by benzidine^pos frequency) is given as ≤ 7×10^6 erythroid cells. Moreover, in experiment [1], the “frequency of benzidine^pos cells after differentiative phase” value is given as 80-95%. Further, in experiment [2], the “percent of benzidine positive cells (mature erythroid cells)” value is less than 10%.
